# Measurements as given in patent publication US12083137B2, “Triazole bisphosphonate geranylgeranyl diphosphate synthase inhibitors” (BOARD OF REGENTS OF THE UNIVERSITY OF NEBRASKA, priority 2017, dated 2024).
# Read-outs that look alike come from different tables or passages of the source.
# What was measured:
# [1] = system: RPMI-8226 cells; experiment: Cellular protein geranylgeranylation: Rap1a immunoblot plus intracellular lambda light chain ELISA; format: cell-based, Human; conditions: 48 h; for Cellular LEC (lowest effective concentration): lowest concentration with visible unmodified Rap1a band and statistically significant increase in intracellular lambda light chain; for relative cellular activity (comparison in words): myeloma cells
# Procedure: (§1) RPMI-8226 cells were incubated for 48 h in the presence or absence of lovastatin (Lov, 10 μM) or varying concentrations of the test compounds. Intracellular lambda light chain concentrations were determined via ELISA. Data are expressed as a percentage of control (mean±SD, n=3). The * denotes p<0.05 per unpaired two-tailed t-test.
# The impact of substituents at the α-carbon of the compounds disclosed herein on cellular activity was assessed in myeloma cells. Impairment of cellular protein geranylgeranylation was determined via two methods: 1) ELISA for intracellular lambda light chain which is a marker for disruption of Rab GTPase geranyl-geranylation (FIGS. 1, 3, 5, 7) and 2) immunoblot analysis for unmodified Rap1a (a substrate of GGTase I) (FIGS. 2, 4, 6, 8). Lovastatin, an HMG-CoA reductase inhibitor, was included as a positive control. […] Next, the impact of the olefin stereochemistry on biological activity was determined.
# Immunoblot analysis (FIG. 2, 4, 6, 8): Multiple myeloma cells were incubated (37° C. and 5% CO2) with test compounds for 48 hours in RPMI-1640 media containing 10% fetal bovine serum and penicillin-streptomycin. Whole cell lysate was obtained using RIPA buffer (0.15 M NaCl, 1% sodium deoxycholate, 0.1% SODS, 1% Triton (v/v) X-100, 0.05 M Tris HCl) containing protease and phosphatase inhibitors. Protein content was determined using the bicinchoninic acid (BCA) method (Pierce Chemical, Rockford, IL). Equivalent amounts of cell lysate were resolved by SODS-PAGE, transferred to polyvinylidene difluoride membrane, probed with the appropriate primary antibodies, and detected using HRP-linked secondary antibodies and Bio-Rad Clarity ECL Substrate Western blotting reagents per manufacturer's protocols.
# (§2) Lambda light chain ELISA (FIG. 1, 3, 5, 7): Human lambda light chain kit (Bethyl Laboratories, Montgomery, TX) was used to quantify intracellular monoclonal protein levels of whole cell lysate. Lambda light chain levels were normalized to total protein levels (as determined by BCA).
# [2] = target: Recombinant GGDPS (Homo sapiens (Human), UniProt O95749); experiment: GGDPS enzyme assay; format: biochemical; conditions: for Selectivity for GGDPS to FDPS: ratio FDPS IC50 / GGDPS IC50
# Procedure: (§3) FIG. 9 GGDPS and FDPS enzyme assay data for compounds 19, 20, and 21. Each assay was performed in three independent experiments (R1, R2, R3) and each compound was tested in duplicate at each concentration.
# (§4) Each assay was performed in three independent experiments (R1, R2, R3) and each compound was tested in duplicate at each concentration.
# GGDPS Enzyme assay (FIG. 9, 10, 11): Recombinant GGDPS was obtained from MyBioSource (San Diego, CA). Recombinant enzyme (20 nM GGDPS) was incubated with assay buffer (50 mM Tris-HCl, pH 7.7, 20 mM MgCl2, 5 mM TCEP, 5 μg/mL BSA) and test compounds for 10 minutes at room temperature. The reaction was initiated by the addition of 10 μM FPP and 10 μM [^14C]-IPP and was carried out at 37° C. for 30 minutes. The reaction was stopped by the addition of saturated NaCl. Radiolabeled GGPP was extracted with n-butanol and counted via liquid scintillation counting. CompuSyn software (ComboSyn, Inc.) was used to analyze the concentration response curves and determine the IC50 values.
# [3] = target: FDPS (Homo sapiens (Human), UniProt P14324); experiment: FDPS enzyme assay; format: biochemical
# Procedure: as §3, §4
# [4] = system: RPMI-8226 cells; experiment: Lambda light chain ELISA (intracellular lambda light chain, marker of Rab GTPase geranylgeranylation disruption); format: cell-based, Human; conditions: 48 h
# Procedure: as §1, §2
# [5] = 20 nM recombinant GGDPS, 10 μM FPP, 10 μM [14C]-IPP, 37° C. 30 minutes, read-out: GGDPS IC50
# FDPS, sequence (P14324 whole entry, species assumed): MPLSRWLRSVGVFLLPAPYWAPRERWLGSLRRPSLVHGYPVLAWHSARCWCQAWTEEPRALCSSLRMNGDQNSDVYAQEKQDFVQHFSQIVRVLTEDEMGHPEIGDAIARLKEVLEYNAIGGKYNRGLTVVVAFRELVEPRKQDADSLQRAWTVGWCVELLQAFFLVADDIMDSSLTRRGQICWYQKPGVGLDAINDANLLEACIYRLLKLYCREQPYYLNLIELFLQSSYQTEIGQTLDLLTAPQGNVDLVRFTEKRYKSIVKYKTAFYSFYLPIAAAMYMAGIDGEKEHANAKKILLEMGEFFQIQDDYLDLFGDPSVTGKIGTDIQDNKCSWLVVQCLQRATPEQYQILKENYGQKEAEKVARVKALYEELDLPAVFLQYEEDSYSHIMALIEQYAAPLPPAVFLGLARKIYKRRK
# Recombinant GGDPS, sequence (O95749 whole entry): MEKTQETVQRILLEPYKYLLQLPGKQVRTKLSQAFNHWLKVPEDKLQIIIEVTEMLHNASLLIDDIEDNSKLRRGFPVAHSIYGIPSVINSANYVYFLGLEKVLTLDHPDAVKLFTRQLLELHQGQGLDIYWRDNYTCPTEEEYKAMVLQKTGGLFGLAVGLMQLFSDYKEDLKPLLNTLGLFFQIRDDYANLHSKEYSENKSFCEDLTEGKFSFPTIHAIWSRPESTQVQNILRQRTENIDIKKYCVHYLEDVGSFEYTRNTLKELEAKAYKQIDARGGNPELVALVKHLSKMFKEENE
specificity (selectivity) for GGDPS over FDPS [2],"IC50 [2, 5]",IC50 ([3]; read-out: FDPS IC50),Compound,Cellular LEC (lowest effective concentration) [1],Selectivity for GGDPS to FDPS [2],relative cellular activity (comparison in words) [1],IC50 [2],relative GGDPS inhibitory activity in enzymatic assays (comparison in words) [2],IC50 [3],"improvement in cellular activity of POM-version versus corresponding salt 17 ([4]; FIG. 7, RPMI-8226 cells)","cellular potency of Z-isomer relative to the E-isomer 21 ([4]; FIG. 5, RPMI-8226 cells)"
at least 3.5 fold,0.125 ± 0.027 µM,43.1 ± 2.98 µM,"CC(C)=CCC/C(C)=C/Cn1cc(CC(C)(P(=O)([O-])[O-])P(=O)([O-])[O-])nn1.[Na+].[Na+].[Na+].[Na+] [Compound 21, Sodium (E)-(1-(1-(3,7-dimethylocta-2,6-dien-1-yl)-1H-1,2,3-triazol-4-yl)propane-2,2-diyl)bis(phosphonate)]",0.02 µM,345,–,–,–,–,–,–
–,–,–,"CC(C)=CCCC(C)=CCCn1cc(CC(C)(P(=O)([O-])[O-])P(=O)([O-])[O-])nn1.[Na+].[Na+].[Na+].[Na+] [Compound 16, Sodium (1-(1-(4,8-dimethylnona-3,7-dien-1-yl)-1H-1,2,3-triazol-4-yl)propane-2,2-diyl)bis(phosphonate)]",0.1 µM,49,–,1.27 ± 0.303 µM,very similar to the individual isomers,62.2 ± 7.22 µM,–,–
–,–,–,"CC(C)=CCC/C(C)=C\CCn1cc(CC(C)(P(=O)(OCOC(=O)C(C)(C)C)OCOC(=O)C(C)(C)C)P(=O)(OCOC(=O)C(C)(C)C)OCOC(=O)C(C)(C)C)nn1 [Compound 25, (Z)-(((1-(1-(4,8-dimethylnona-3,7-dien-1-yl)-1H-1,2,3-triazol-4-yl)propane-2,2-diyl)bis(oxo-15-phosphanetriyl))tetrakis(oxy))tetrakis(methylene) tetrakis(2,2-dimethylpropanoate)]",–,–,–,–,–,–,approximately 10 fold,–
–,0.086 ± 0.022 µM,59.6 ± 15 µM,"CC(C)=CCC/C(C)=C\Cn1cc(CC(C)(P(=O)([O-])[O-])P(=O)([O-])[O-])nn1.[Na+].[Na+].[Na+].[Na+] [Compound 20, Sodium (Z)-(1-(1-(3,7-dimethylocta-2,6-dien-1-yl)-1H-1,2,3-triazol-4-yl)propane-2,2-diyl)bis(phosphonate)]",0.025 µM,693,–,–,more potent than the E isomer 21,–,–,approximately 50 fold
–,0.1 ± 0.019 µM,24.1 ± 3.15 µM,"CC(C)=CCCC(C)=CCn1cc(CC(C)(P(=O)([O-])[O-])P(=O)([O-])[O-])nn1.[Na+].[Na+].[Na+].[Na+] [Compound 19, Sodium (1-(1-(3,7-dimethylocta-2,6-dien-1-yl)-1H-1,2,3-triazol-4-yl)propane-2,2-diyl)bis(phosphonate)]",0.03 µM,241,–,–,more potent than its corresponding non-methylated analogue 31,–,–,–
–,–,–,"CC(C)=CCC/C(C)=C/CCn1cc(CC(C)(P(=O)([O-])[O-])P(=O)([O-])[O-])nn1.[Na+].[Na+].[Na+].[Na+] [Compound 18, Sodium (E)-(1-(1-(4,8-dimethylnona-3,7-dien-1-yl)-1H-1,2,3-triazol-4-yl)propane-2,2-diyl)bis(phosphonate)]",5.0 µM,3.5,slightly more potent than the Z-isomer,20.5 ± 2.3 µM,–,71.4 ± 24.2 µM,–,–
–,–,–,"CC(C)=CCC/C(C)=C\CCn1cc(CC(C)(P(=O)([O-])[O-])P(=O)([O-])[O-])nn1.[Na+].[Na+].[Na+].[Na+] [Compound 17, Sodium (Z)-(1-(1-(4,8-dimethylnona-3,7-dien-1-yl)-1H-1,2,3-triazol-4-yl)propane-2,2-diyl)bis(phosphonate)]",0.1 µM,>108,–,0.92 ± 0.089 µM,–,> 100 µM,–,–

Compound,specificity (selectivity) for GGDPS over FDPS [2],"IC50 [2, 5]",IC50 ([3]; read-out: FDPS IC50),Cellular LEC (lowest effective concentration) [1],Selectivity for GGDPS to FDPS [2],relative cellular activity (comparison in words) [1],IC50 [2],relative GGDPS inhibitory activity in enzymatic assays (comparison in words) [2],IC50 [3],"improvement in cellular activity of POM-version versus corresponding salt 17 ([4]; FIG. 7, RPMI-8226 cells)","cellular potency of Z-isomer relative to the E-isomer 21 ([4]; FIG. 5, RPMI-8226 cells)"
CCC(Cc1cn(C/C=C(\C)CCC=C(C)C)nn1)(P(=O)(O)O)P(=O)(O)O [Compound 28],–,5.85 ± 1.3 µM,94.3 ± 20.6 µM,2.5 µM,16,less potent than either the parent compound 31,–,–,–,–,–
